Test results taken from PubChem BioAssay AID1963863 (Molecular Pharmacology Branch, DTP, NCI, 2024).

System: 931267-113-T-J1-PDC KRAS spheroid with HUVEC/MSC, viability
Assay: Anticancer human tumor 931267-113-T-J1-PDC patient-derived colon adenocarcinoma cell line growth inhibition [KRAS2]
Details: for viability, T/C: stronger effect = lower value; active means viability on the fitted dose curve at most 10% of control; inactive means the rest
Source text: Multicellular complex tumor spheroid response to RAS pathway inhibitors in combination with a targeted agents in patient-derived cell lines with oncogenic KRAS variants from multiple cancer types
A high-throughput screen of multi-cell type tumor spheroids was designed to identify active combinations of targeted small molecules and KRAS pathway inhibitors. Complex spheroids include a stromal component modeled by human endothelial cells (HUVEC) and fibroblasts modeled by human mesenchymal stem cells (MSCs). The concentration ranges selected for each drug and investigational agent were based upon clinically achievable concentrations if the clinical Cmax of the agent was known.
Compounds. The drugs and investigational agents: BI-3406 (NSC825286), BAY-293 (NSC824723), batoprotafib (TNO155; NSC825523), sotorasib (AMG 510; NSC818433), MRTX1257 (NSC819558), elimusertib (BAY 1895344; NSC800525), molibresib (GSK525762; NSC774829), temuterkib (LY3214996; NSC803410), venetoclax (NSC766270), alisertib (NSC759677), olaparib (NSC753686), talazoparib (NSC767125), erdafitinib (NSC781556), ipatasertib (NSC767898), cabozantinib (NSC761068), nintedanib (NSC756659), abemaciclib (NSC768073), docetaxel (NSC628503), trametinib (NSC758246), and sapanisertib (NSC764658) were obtained from the National Cancer Institute (NCI) Developmental Therapeutics Program Chemical Repository. The FDA-approved anticancer drug set is available from the Developmental Therapeutics Program. […] The stock solutions were prepared in dimethyl sulfoxide (DMSO, Sigma-Aldrich, St. Louis, MO, cat. D2650) at 800-fold the tested concentration and stored at -70 degrees C prior to their use. All drugs and investigational agents were tested over a range starting from a high concentration at or near the clinical Cmax and decreasing in half-log increments. If the clinical Cmax for an agent had not been determined, the highest concentration tested was 10 microM.
Cell Culture. All cells were maintained in an incubator at 37 degrees C and 5% CO2 with 95% humidity. The PDC lines were cultured according to standard operating procedures established by the NCI PDMR (https://pdmr.cancer.gov/sops/default.htm). Briefly, all PDCs were thawed and cultured in Matrigel-coated flasks prepared with a working solution of 1X Ham's F-12 nutrient mix, without supplementation (Invitrogen, Waltham, MA, cat. 11765054), 100 U/mL penicillin-streptomycin (Invitrogen, cat. 15140122), and 2.5% Matrigel (Corning Inc., Corning, NY, cat. 354248) for the first three passages. All PDCs were cultured in complete DMEM/F-12 media containing advanced DMEM/F-12 (Invitrogen, cat. 12634028), 4.9% defined fetal bovine serum, heat inactivated (HyClone Laboratories Inc., Logan, UT, cat. SH30070.03HI), 389 ng/mL hydrocortisone (Sigma-Aldrich, cat. H4001), 9.7 ng/mL human EGF recombinant protein (Invitrogen, cat. PHG0313), 23.4 microg/mL adenine (Sigma-Aldrich, cat. A2786), 97.3 U/mL penicillin-streptomycin (Invitrogen, cat. 15140122), 1.9 mM L-glutamine (Invitrogen, cat. 25030081), and 9.7 microM Y-27632 dihydrochloride (Tocris Bioscience, Bristol, United Kingdom, cat. 1254). The PDCs were cultured in complete DMEM/F12 media without 9.7 microM Y-27632 dihydrochloride for at least two passages prior to the screen. The established cell line HOP-62 was cultured in RPMI 1640 medium, HEPES (Invitrogen, cat. 22400105) with 10% defined fetal bovine serum (HyClone Laboratories Inc., cat. SH30070.03) and 2 mM L-glutamine (Invitrogen, cat. 25030081). The pooled donor HUVEC were cultured in endothelial cell growth medium 2 (PromoCell, Heidelberg, Germany, cat. C-22011) and the hMSC were cultured in mesenchymal stem cell growth medium 2 (PromoCell, cat. C-28009). For all experiments, HUVEC and hMSC were used at passages </=5, while the malignant cell lines were used at passages </=15. […]

[1] = curve of first compound, second compound 0.1 µM
[2] = curve of first compound, second compound 0.316 µM
[3] = curve of first compound, second compound 1 µM
[4] = curve of first compound, second compound 3.16 µM
[5] = curve of first compound, second compound 10 µM
[6] = second compound 0.1 µM, first compound 0.0316 µM
[7] = second compound 0.316 µM, first compound 0.0316 µM
[8] = second compound 1 µM, first compound 0.0316 µM
[9] = second compound 3.16 µM, first compound 0.0316 µM
[10] = second compound 10 µM, first compound 0.0316 µM
[11] = second compound 0.1 µM, first compound 0.1 µM
[12] = second compound 0.1 µM, first compound 0.316 µM
[13] = second compound 0.1 µM, first compound 1 µM
[14] = second compound 0.1 µM, first compound 3.16 µM
[15] = second compound 0.1 µM, first compound 10 µM
[16] = second compound 0.316 µM, first compound 0.1 µM
[17] = second compound 0.316 µM, first compound 0.316 µM
[18] = second compound 0.316 µM, first compound 1 µM
[19] = second compound 0.316 µM, first compound 3.16 µM
[20] = second compound 0.316 µM, first compound 10 µM
[21] = second compound 1 µM, first compound 0.1 µM
[22] = second compound 1 µM, first compound 0.316 µM
[23] = second compound 1 µM, first compound 1 µM
[24] = second compound 1 µM, first compound 3.16 µM
[25] = second compound 1 µM, first compound 10 µM
[26] = second compound 3.16 µM, first compound 0.1 µM
[27] = second compound 3.16 µM, first compound 0.316 µM
[28] = second compound 3.16 µM, first compound 1 µM
[29] = second compound 3.16 µM, first compound 3.16 µM
[30] = second compound 3.16 µM, first compound 10 µM
[31] = second compound 10 µM, first compound 0.1 µM
[32] = second compound 10 µM, first compound 0.316 µM
[33] = second compound 10 µM, first compound 1 µM
[34] = second compound 10 µM, first compound 3.16 µM
[35] = second compound 10 µM, first compound 10 µM
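Further: compound exposure lasted 7 days before the readout.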

CC(=O)Nc1cccc(-n2c(=O)n(C3CC3)c(=O)c3c(Nc4ccc(I)cc4F)n(C)c(=O)c(C)c32)c1 + COc1cc2nc(C)nc(NC(C)c3cc(N)cc(C(F)(F)F)c3)c2cc1OC1CCOC1
9.82 nM: IC50 [3]
5.76 nM: IC50 [2]
inactive: viability, T/C (second compound 0.1 µM, first compound 0.0001 µM) 75.8% | viability, T/C (second compound 0.1 µM, first compound 0.000316 µM) 75.3% | viability, T/C (second compound 0.1 µM, first compound 0.001 µM) 77.1% | viability, T/C (second compound 0.1 µM, first compound 0.00316 µM) 72.5% | viability, T/C (second compound 0.1 µM, first compound 0.01 µM) 51% | viability, T/C [6] 15.7% | viability, T/C (second compound 0.316 µM, first compound 0.0001 µM) 76.9% | viability, T/C (second compound 0.316 µM, first compound 0.000316 µM) 60.6% | viability, T/C (second compound 0.316 µM, first compound 0.001 µM) 64.8% | viability, T/C (second compound 0.316 µM, first compound 0.00316 µM) 51.3% | viability, T/C (second compound 0.316 µM, first compound 0.01 µM) 50% | viability, T/C [7] 13.7% | viability, T/C (second compound 1 µM, first compound 0.0001 µM) 87% | viability, T/C (second compound 1 µM, first compound 0.000316 µM) 71.7% | viability, T/C (second compound 1 µM, first compound 0.001 µM) 73.8% | viability, T/C (second compound 1 µM, first compound 0.00316 µM) 66.1% | viability, T/C (second compound 1 µM, first compound 0.01 µM) 52.1% | viability, T/C [8] 14.1% | viability, T/C (second compound 3.16 µM, first compound 0.0001 µM) 91.3% | viability, T/C (second compound 3.16 µM, first compound 0.000316 µM) 82.1% | viability, T/C (second compound 3.16 µM, first compound 0.001 µM) 75.1% | viability, T/C (second compound 3.16 µM, first compound 0.00316 µM) 59.5% | viability, T/C (second compound 3.16 µM, first compound 0.01 µM) 52% | viability, T/C [9] 19.6% | viability, T/C (second compound 10 µM, first compound 0.0001 µM) 21.4% | viability, T/C (second compound 10 µM, first compound 0.000316 µM) 37.6% | viability, T/C (second compound 10 µM, first compound 0.001 µM) 20.4% | viability, T/C (second compound 10 µM, first compound 0.00316 µM) 2.31%
< 0.1 nM: IC50 [5]
10.3 nM: IC50 [1]
7.73 nM: IC50 [4]
active: viability, T/C (second compound 10 µM, first compound 0.01 µM) 14.3% | viability, T/C [10] 1.54%

COc1cc(Nc2ncc3c(n2)-c2ccc(Cl)cc2C(c2c(F)cccc2OC)=NC3)ccc1C(=O)O + CNCc1ccccc1-c1csc(C(C)Nc2nc(C)nc3cc(OC)c(OC)cc23)c1
< 31.6 nM: IC50 [3] | IC50 [4] | IC50 [5]
active: viability, T/C [9] 0.23% | viability, T/C [26] 0.31% | viability, T/C [27] 0.33% | viability, T/C [28] 0.21% | viability, T/C [29] 0.2% | viability, T/C [30] 0.35% | viability, T/C [10] 0.26% | viability, T/C [31] 0.16% | viability, T/C [32] 0.23% | viability, T/C [33] 0.16% | viability, T/C [34] 0.16% | viability, T/C [35] 0.31%
> 10000 nM: IC50 [1] | IC50 [2]
inactive: viability, T/C [6] 78.9% | viability, T/C [11] 87% | viability, T/C [12] 85.5% | viability, T/C [13] 72.3% | viability, T/C [14] 87.4% | viability, T/C [15] 62.1% | viability, T/C [7] 122% | viability, T/C [16] 106% | viability, T/C [17] 154% | viability, T/C [18] 86.6% | viability, T/C [19] 77.5% | viability, T/C [20] 64.2% | viability, T/C [8] 18.7% | viability, T/C [21] 36.5% | viability, T/C [22] 18.4% | viability, T/C [23] 26% | viability, T/C [24] 25.9% | viability, T/C [25] 25.6%

COc1cc(OC)cc(N(CCNC(C)C)c2ccc3ncc(-c4cnn(C)c4)nc3c2)c1
active: viability, T/C (compound 10 µM) 0.45% [middle of 4 runs]
4.66 µM [middle of 4 runs]: IC50 (curve of compound)
inactive: viability, T/C (compound 0.1 µM) 101% [middle of 5 runs] | viability, T/C (compound 0.316 µM) 107% [middle of 5 runs] | viability, T/C (compound 1 µM) 107% [middle of 5 runs]

CCNC(=O)CC1N=C(c2ccc(Cl)cc2)c2cc(OC)ccc2-n2c(C)nnc21 (stereo not given) + C=CC(=O)N1CCN(c2nc(=O)n(-c3c(C)ccnc3C(C)C)c3nc(-c4c(O)cccc4F)c(F)cc23)C(C)C1
4870 nM: IC50 [2]
4480 nM: IC50 [3]
inactive: viability, T/C [6] 103% | viability, T/C [11] 97.6% | viability, T/C [12] 80.8% | viability, T/C [13] 68.5% | viability, T/C [14] 43% | viability, T/C [15] 40.8% | viability, T/C [7] 88.4% | viability, T/C [16] 81.2% | viability, T/C [17] 68.3% | viability, T/C [18] 59.7% | viability, T/C [19] 55% | viability, T/C [20] 44.5% | viability, T/C [8] 120% | viability, T/C [21] 82.8% | viability, T/C [22] 84.4% | viability, T/C [23] 64.1% | viability, T/C [24] 56.1% | viability, T/C [25] 40.8% | viability, T/C [9] 101% | viability, T/C [26] 92.7% | viability, T/C [27] 78.6% | viability, T/C [28] 65.3% | viability, T/C [29] 59.1% | viability, T/C [30] 51.8% | viability, T/C [10] 94.5% | viability, T/C [31] 102% | viability, T/C [32] 82.6% | viability, T/C [33] 74.6% | viability, T/C [34] 50.7% | viability, T/C [35] 43%
> 10000 nM: IC50 [4]
2650 nM: IC50 [1]
4230 nM: IC50 [5]
